The numbers were not newly measured in article PMC11215356 (Haematologica, 2024), which cites them from elsewhere.

Molecules are shown by their SMILES.

Data set [1] deals with FL. The following applies: FL patients.
The subject of data set [2] is CLL/SLL. The conditions noted are these: CLL/SLL patients, range over previous Syk inhibitor studies.
Data set [3] deals with patients treated with fostamatinib.

For `c1cn2cc(-c3ccc4cn[nH]c4c3)nc(Nc3ccc(N4CCOCC4)cc3)c2n1` [entospletinib], the mPFS in data set [1] was 4.6 months. In addition, in data set [2], the ORR is listed as 33-61% and the mPFS is on record as 5.6-13.8 months.
Take `COc1cc(Nc2ncc(F)c(Nc3ccc4c(n3)N(COP(=O)(O)O)C(=O)C(C)(C)O4)n2)cc(OC)c1OC` [fostamatinib]: in data set [1], the mPFS is on record as 5.7 months. In data set [2], the ORR is on record as 33-61% and the mPFS is recorded as 5.6-13.8 months. Further, in data set [3], the “diarrhea as a DLT event” value was 21% and the “diarrhea as one of the most common TRAE” value is listed as 41%.
In the case of `CCS(=O)(=O)N1CCN(c2ccc(Nc3ncc(C(N)=O)c(NC4CC4)n3)cc2)CC1` [cerdulatinib], in data set [2], the ORR is listed as 33-61% and the mPFS is 5.6-13.8 months.
